Test results from patent publication US20060069132A1, “Azolecarboxamide herbicides” (priority 2004, published 2006).

What was measured:
morningglory (IPOCO) = test: Test J Compounds 2 and 6 alone and in combination with other herbicides, foliage spray; assay type: in vivo, Ipomoea coccinea; set-up: key: 0 = no effect, 100 = complete control; details: applied alone
Procedure, shortened: (§1)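 Visual control rating (0 = no effect, 100 = complete control), mean of three replicates, scored 15 days after a 541 L/ha foliar spray of 1- to 4-leaf plants. Mixture expectations derived with Colby's Equation from the single-component effects at matching rates.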

lambsquarters (CHEAL) = test: as above; assay type: in vivo, Chenopodium album; set-up: key: % herbicidal effect (observed); details: applied alone
Text: Colby's Equation was used to calculate the expected additive herbicidal effect of the mixtures of Compound 6 with Harmony® Extra (i.e. a 2:1 mixture by weight of thifensulfuron-methyl and tribenuron-methyl). Colby's Equation (Colby, S. R. “Calculating Synergistic and Antagonistic Responses of Herbicide Combinations,” Weeds, 15(1), pp 20-22 (1967)) calculates the expected additive effect of herbicidal mixtures, and for two active ingredients is of the form: Pa+b=Pa+Pb−(PaPb/100) wherein • Pa+b is the percentage effect of the mixture expected from additive contribution of the individual components, • Pa is the observed percentage effect of the first active ingredient at the same use rate as in the mixture, and • Pb is the observed percentage effect of the second active ingredient at the same use rate as in the mixture.
(§2) Seeds of test plants consisting of barnyardgrass (ECHCG; Echinochloa crus-galli (L.) Beauv.), blackgrass (ALOMY; Alopecurus myosuroides Huds.), Surinam grass (BRADC; Urochloa decumbens (Staph) R. D. Webster, previously named Brachiaria decumbens Stapf), cocklebur (XANST, Xanthium strumarium L.), corn (ZEAMD, Zea mays L. cv. ‘Pioneer 33G26’), large crabgrass (DIGSA, Digitaria sanguinalis (L.) Scop.), giant foxtail (SETFA, Setaria faberi Herrm.), lambsquarters (CHEAL, Chenopodium album L.), morningglory (IPOCO, Ipomoea coccinea L.), pigweed (AMARE, Amaranthus retroflexus L.), velvetleaf (ABUTH, Abutilon theophrasti Medik.) wheat (TRZAS, Triticum aestivum L. cv. ‘Recital’) and wild oat (AVEFA, Avena fatua L.) were planted in Redi-Earth® planting medium (Scotts Company, 14111 Scottslawn Road, Marysville, Ohio 43041) comprising spaghnum peat moss and vermiculite. Seeds of small-seeded species were planted about 1 cm deep; larger seeds were planted about 2.5 cm deep. Plants were grown in a greenhouse using supplemental lighting to maintain a photoperiod of about 14 hours; daytime and nighttime temperatures were about 24-30° C. and 22-25° C., respectively. Balanced fertilizer was applied through the watering system. The plants were grown for 7 to 11 days so that at time of treatment the plants ranged in height from 2 to 18 cm (1- to 4-leaf stage). Treatments consisted of Compounds 2 and 6 (technical material), atrazine (90DF), terbacil (Sinbar® 80DF), hexazinone (Velpar® 75WG), diuron (Karmex® 80WP) and paraquat (Gramoxone® Extra, 37%) alone and in combination, suspended or dissolved in an aqueous solvent comprising a nonionic surfactant and applied as a foliage spray using a volume of 541 L/ha. Each treatment was triply replicated. […] Treated plants and controls were maintained in the greenhouse and watered as needed with care to not wet the foliage for the first 24 hours after treatment. The effects on the plants 15 days after treatment were visually compared to untreated controls. Plant response ratings, listed in Table J as the means of the thee replicates, are based on a scale of 0 to 100 where 0 is no effect and 100 is complete control. Also listed in Table J are the expected effects for the mixtures calculated using Colby's Equation.

cocklebur (XANST) = test: as above; assay type: in vivo, Xanthium strumarium; set-up: key: 0 = no effect, 100 = complete control; details: applied alone
Text: as §2

velvetleaf (ABUTH) = test: as above; assay type: in vivo, Abutilon theophrasti; set-up: key: 0 = no effect, 100 = complete control; details: applied alone
Procedure, shortened: as §1

barnyardgrass (ECHCG) = test: as above; assay type: in vivo, Echinochloa crus-galli; set-up: key: percentage herbicidal effect (observed); details: applied alone
Procedure, shortened: as §1

large crabgrass (DIGSA) = test: as above; assay type: in vivo, Digitaria sanguinalis; set-up: key to DIGSA Obsd.: 0 = no effect, 100 = complete control; details: for DIGSA Obsd.: applied alone; for observed effect of mixture compared with additive effect expected from Colby's Equation: crabgrass, foliage spray, 15 days after treatment
Procedure, shortened: as §1

corn (ZEAMD) = test: as above; assay type: in vivo, Zea mays; set-up: key: percentage herbicidal effect (observed); details: applied alone
Procedure, shortened: as §1

giant foxtail (SETFA) = test: as above; assay type: in vivo, Setaria faberi; set-up: key: 0 = no effect, 100 = complete control; details: applied alone
Text: as §2

wheat (TRZAS) = test: as above; assay type: in vivo, Triticum aestivum; set-up: key: 0 = no effect, 100 = complete control; details: applied alone
Procedure, shortened: as §1

catchweed bedstraw = test: Test F pre-/postemergence herbicide test; assay type: in vivo, Gallium aparine
Text: (§3) Seeds of plant species selected from annual blugrass (Poa annua L.), blackgrass (Alopecurus myosuroides Huds.), catchweed bedstraw (Gallium aparine L.), common chickweed (Stellaria media (L.) Vill./Cyr.), downy bromegrass (Bromus tectorum L.), green foxtail (Setaria viridis (L.) Beauv.), Italian ryegrass (Lolium multiflorum Lam.), kochia (Kochia scoparia (L.). Schrad.), lambsquarters (Chenopodium album L.), littleseed canarygrass (Phalaris minor Retz.), pigweed (Amaranthus retroflexus L.), Russian thistle (Salsola kali L. ssp. Ruthenica (Iljin) Soo), wild buckwheat (Polygonum convolvulus L.), wild mustard (Sinapis arvensis L.), wild oat (Avena fatua L.), windgrass (Apera spica-venti (L.) Beauv.), winter barley (Hordeum vulgare L.), and wheat (Triticum aestivum L.) were planted and treated preemergence with test chemicals formulated in a non-phytotoxic solvent mixture which included a surfactant.
At the same time, plants selected from these crop and weed species were treated with postemergence applications of some of the test chemicals formulated in the same manner. Plants ranged in height from 2 to 18 cm (1- to 4-leaf stage) for postemergence treatments. Treated plants and controls were maintained in a greenhouse for 12 to 14 days, after which time all species were compared to controls and visually evaluated. Plant response ratings, summarized in Table F, are based on a scale of 0 to 100 where 0 is no effect and 100 is complete control. A dash (-) response means no test result.

windgrass = test: Test F pre-/postemergence herbicide test; assay type: in vivo, Apera spica-venti; details: 125 g ai/ha
Text: as §3
(§4) At the same time, plants selected from these crop and weed species were treated with postemergence applications of some of the test chemicals formulated in the same manner. Plants ranged in height from 2 to 18 cm (1- to 4-leaf stage) for postemergence treatments. Treated plants and controls were maintained in a greenhouse for 12 to 14 days, after which time all species were compared to controls and visually evaluated. […]

Russian thistle = test: Test F pre-/postemergence herbicide test; assay type: in vivo, Salsola kali; details: 125 g ai/ha
Text: as §3, §4

SMILES: CCNC(=O)c1ccc(F)c(NC(=O)c2cc(C(C)(C)C)nn2CC)c1 [Compound 2, 3-(1,1-dimethylethyl)-1-ethyl-N-[5-[(ethylamino)carbonyl]-2-fluorophenyl]-1H-pyrazole-5-carboxamide]
- IPOCO Obsd. (morningglory (IPOCO); 62 g a.i./ha): 17
- IPOCO Obsd. (morningglory (IPOCO); 125 g a.i./ha): 27
- CHEAL Obsd. (lambsquarters (CHEAL); 62 g a.i./ha): 40
- CHEAL Obsd. (lambsquarters (CHEAL); 125 g a.i./ha): 55
- XANST Obsd. (cocklebur (XANST); 62 g a.i./ha): 50
- XANST Obsd. (cocklebur (XANST); 125 g a.i./ha): 58
- ABUTH Obsd. (velvetleaf (ABUTH); 62 g a.i./ha): 17
- ABUTH Obsd. (velvetleaf (ABUTH); 125 g a.i./ha): 18
- ECHCG Obsd. (barnyardgrass (ECHCG); 62 g a.i./ha): 13
- ECHCG Obsd. (barnyardgrass (ECHCG); 125 g a.i./ha): 8
- DIGSA Obsd. (large crabgrass (DIGSA); 62 g a.i./ha): 5
- DIGSA Obsd. (large crabgrass (DIGSA); 125 g a.i./ha): 15
- observed effect of mixture compared with additive effect expected from Colby's Equation (large crabgrass (DIGSA); mixture with diuron): greater than additive
- observed effect of mixture compared with additive effect expected from Colby's Equation (large crabgrass (DIGSA); mixture with terbacil): greater than additive
- ZEAMD Obsd. (corn (ZEAMD); 62 g a.i./ha): 25
- ZEAMD Obsd. (corn (ZEAMD); 125 g a.i./ha): 65
- SETFA Obsd. (giant foxtail (SETFA); 62 g a.i./ha): 28
- SETFA Obsd. (giant foxtail (SETFA); 125 g a.i./ha): 32
- TRZAS Obsd. (wheat (TRZAS); 62 g a.i./ha): 8
- TRZAS Obsd. (wheat (TRZAS); 125 g a.i./ha): 10

SMILES: CCn1nc(C(C)(C)C)cc1C(=O)Nc1cccc(C(N)=O)n1 [Compound 162, 6-[[[3-(1,1-dimethylethyl)-1-ethyl-1H-pyrazol-5-yl]carbonyl]amino]-2-pyridinecarboxamide]
- Plant response rating (0-100), Galium (catchweed bedstraw; Preemergence, 62 g ai/ha): 60
- Plant response rating (0-100), Galium (catchweed bedstraw; Preemergence, 125 g ai/ha): 70
- Plant response rating (0-100), Galium (catchweed bedstraw; Preemergence, 250 g ai/ha): 100
- Plant response rating (0-100), Galium (catchweed bedstraw; Preemergence, 500 g ai/ha): 100

SMILES: CCc1nn(C(C)(C)C)cc1C(=O)Nc1cc(C(=O)N(CC)CC)ccc1F [Compound 223]
- Plant response rating (0-100), Windgrass (windgrass; Postemergence): 50
- Plant response rating (0-100), Windgrass (windgrass; Preemergence): 100
- Plant response rating (0-100), Galium (catchweed bedstraw; Postemergence, 125 g ai/ha): 60
- Plant response rating (0-100), Galium (catchweed bedstraw; Preemergence, 125 g ai/ha): 50
- Plant response rating (0-100), Thistle (Russian thistle; Postemergence): 60
- Plant response rating (0-100), Thistle (Russian thistle; Preemergence): 60
